Source: patent publication US20250230147A1, “LACTAMS AS CBL-B INHIBITORS” (Genentech, Inc., priority 2021, published 2025)
Structures can show the parent of a compound that is named as a salt. Where two headings read alike, the source gives them in different places.

Key:
[1] = target: c-Cbl (Homo sapiens (Human), UniProt P22681); experiment: C-Cbl LCK Ub TR-FRET assay (c-cbl Lck HTRF); format: biochemical; settings: for (fold-selectivity): C-cbl Lck HTRF IC50 relative to Cbl-b Lck HTRF IC50
How it was run: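 After the ubiquitination reaction, detection mixture was added and plates incubated 20 min at room temperature before reading. IC50 values were calculated with wells lacking LCK as the low control and DMSO as the high control.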

[2] = target: Cbl-b (Homo sapiens (Human), UniProt Q13191); experiment: Cbl-b LCK Ub TR-FRET assay (Cbl-b Lck HTRF); format: biochemical
Cbl-b, sequence (Q13191 40-426): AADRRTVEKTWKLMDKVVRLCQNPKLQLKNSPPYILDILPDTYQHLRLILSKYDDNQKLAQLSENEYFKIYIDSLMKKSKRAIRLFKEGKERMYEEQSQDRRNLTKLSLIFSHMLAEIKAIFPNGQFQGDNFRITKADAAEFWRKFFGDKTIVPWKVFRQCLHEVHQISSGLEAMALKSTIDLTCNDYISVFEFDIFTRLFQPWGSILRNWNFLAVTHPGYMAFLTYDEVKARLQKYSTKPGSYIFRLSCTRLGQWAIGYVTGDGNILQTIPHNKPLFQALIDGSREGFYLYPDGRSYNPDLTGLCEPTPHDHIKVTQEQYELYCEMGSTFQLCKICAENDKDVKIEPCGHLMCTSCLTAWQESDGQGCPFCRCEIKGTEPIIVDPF
How it was run: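 Biotin-Cbl-b preincubated with compound (10-point 3-fold series) 60 min, then His-LCK with 1 mM ATP (2× mixture) added for 90 min at room temperature. Ubiquitination detected by TR-FRET using HA-ubiquitin/UBE2D2 adduct, anti-HA-D2 and streptavidin-Eu; IC50 normalised to no-LCK and DMSO controls.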

c-Cbl, sequence (P22681 47-435): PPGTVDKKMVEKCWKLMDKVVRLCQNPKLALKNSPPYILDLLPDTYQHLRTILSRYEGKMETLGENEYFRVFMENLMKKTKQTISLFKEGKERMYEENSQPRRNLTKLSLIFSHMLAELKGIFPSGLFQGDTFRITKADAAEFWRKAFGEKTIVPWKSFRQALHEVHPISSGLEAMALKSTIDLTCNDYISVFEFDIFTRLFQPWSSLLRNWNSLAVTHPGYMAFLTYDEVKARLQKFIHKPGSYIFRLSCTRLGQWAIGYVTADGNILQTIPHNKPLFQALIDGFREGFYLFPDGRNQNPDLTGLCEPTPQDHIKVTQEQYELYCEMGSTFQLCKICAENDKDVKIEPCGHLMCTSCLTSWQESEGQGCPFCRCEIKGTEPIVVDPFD

Compound | IC50 [1] [nM] | (fold-selectivity) [1] | IC50 [2] [nM] | IC50 ([1]; formate) [nM] | IC50 ([2]; formate) [nM]
Cn1cnnc1[C@H](F)C1(c2cccc(N3Cc4c(cc(CN5CC(C)(CF)C5)cc4C(F)(F)F)C3=O)c2)COC1 [Compound 76, (R)-2-(3-(3-(fluoro(4-methyl-4H-1,2,4-triazol-3-yl)methyl)oxetan-3-yl)phenyl)-6-((3-(fluoromethyl)-3-methylazetidin-1-yl)methyl)-4-(trifluoromethyl)isoindolin-1-one] | 82 | 1.6x | 52 | – | –
CC[C@@H](C)NCc1cc2c(c(C(F)(F)F)c1)CN(c1cccc(C3(Cc4nncn4C)CC(F)(F)C3)c1)C2=O [Compound 370, (R)-6-((sec-butylamino)methyl)-2-(3-(3,3-difluoro-1-((4-methyl-4H-1,2,4-triazol-3-yl)methyl)cyclobutyl)phenyl)-4-(trifluoromethyl)isoindolin-1-one] | 63 | (1.0x) | 62 | – | –
Cn1cnnc1CC1(c2cc(NC3C4CCC3C4)nc(N3Cc4c(cccc4C(F)(F)F)C3=O)c2)COC1 (stereo not shown) [Compound 382, 2-(6-(bicyclo[2.1.1]hexan-5-ylamino)-4-(3-((4-methyl-4H-1,2,4-triazol-3-yl)methyl)oxetan-3-yl)pyridin-2-yl)-4-(trifluoromethyl)isoindolin-1-one] | 20000 | (24x) | 820 | – | –
Cn1cnnc1[C@H](F)C1(c2cccc(N3Cc4c(cc(CN5CCC[C@@H](CO)C5)cc4C(F)(F)F)C3=O)c2)COC1 [Compound 151, 2-(3-(3-((R)-fluoro(4-methyl-4H-1,2,4-triazol-3-yl)methyl)oxetan-3-yl)phenyl)-6-(((R)-3-(hydroxymethyl)piperidin-1-yl)methyl)-4-(trifluoromethyl)isoindolin-1-one] | 85 | 1.4x | 61 | – | –
Cn1cnnc1[C@H](F)C1(c2cccc(N3Cc4c(cc(CN5CCC[C@H]5CO)cc4C(F)(F)F)C3=O)c2)COC1 [Compound 149, 2-(3-(3-((R)-fluoro(4-methyl-4H-1,2,4-triazol-3-yl)methyl)oxetan-3-yl)phenyl)-6-(((S)-2-(hydroxymethyl)pyrrolidin-1-yl)methyl)-4-(trifluoromethyl)isoindolin-1-one] | 390 | 1.0x | 380 | – | –
CCn1cnnc1[C@H](F)C1(c2cccc(N3Cc4c(cccc4C(F)(F)F)C3=O)c2)COC1 [Compound 272, (R)-2-(3-(3-((4-ethyl-4H-1,2,4-triazol-3-yl)fluoromethyl)oxetan-3-yl)phenyl)-4-(trifluoromethyl)isoindolin-1-one] | 11000 | (1.3x) | 8200 | – | –
CN1CC2CC(C1)N2Cc1cc2c(c(C(F)(F)F)c1)CN(c1cccc(C3(Cc4nncn4C)CC(F)(F)C3)c1)C2=O [Compound 413, 2-(3-(3,3-difluoro-1-((4-methyl-4H-1,2,4-triazol-3-yl)methyl)cyclobutyl)phenyl)-6-((3-methyl-3,6-diazabicyclo[3.1.1]heptan-6-yl)methyl)-4-(trifluoromethyl)isoindolin-1-one formate] | – | – | – | 50 | 56
CN1CCN(Cc2cc3c(c(C(F)(F)F)c2)CN(c2cccc(C4(Cc5nncn5C)CC(F)(F)C4)c2)C3=O)C(=O)C1 [Compound 444, 2-(3-(3,3-difluoro-1-((4-methyl-4H-1,2,4-triazol-3-yl)methyl)cyclobutyl)phenyl)-6-((4-methyl-2-oxopiperazin-1-yl)methyl)-4-(trifluoromethyl)isoindolin-1-one] | 180 | (1.1x) | 170 | – | –
CN(C)Cc1cccc(CNc2cc(C3(Cc4nncn4C)CCC3)cc(N3Cc4c(cc(CNC5(C)CCC5)cc4C(F)(F)F)C3=O)n2)c1 [Compound 318, 2-(6-((3-((dimethylamino)methyl)benzyl)amino)-4-(1-((4-methyl-4H-1,2,4-triazol-3-yl)methyl)cyclobutyl)pyridin-2-yl)-6-(((1-methylcyclobutyl)amino)methyl)-4-(trifluoromethyl)isoindolin-1-one] | 140 | (1.1x) | 130 | – | –
Cn1cnnc1CC1(c2cccc(N3Cc4c(cc(CNC(C)(C)C)cc4C(F)(F)F)C3=O)c2)CC(F)(F)C1 [Compound 283, 6-((tert-butylamino)methyl)-2-(3-(3,3-difluoro-1-((4-methyl-4H-1,2,4-triazol-3-yl)methyl)cyclobutyl)phenyl)-4-(trifluoromethyl)isoindolin-1-one] | 57 | (1.1x) | 53 | – | –
Cn1cnnc1[C@@H](F)C1(c2cccc(N3Cc4c(cc(CN5CC6(COC6)C5)cc4C(F)(F)F)C3=O)c2)COC1 [Compound 10, (S)-6-(2-oxa-6-azaspiro[3.3]heptan-6-ylmethyl)-2-(3-(3-(fluoro(4-methyl-4H-1,2,4-triazol-3-yl)methyl)oxetan-3-yl)phenyl)-4-(trifluoromethyl)isoindolin-1-one] | 1100 | 2.3x | 500 | – | –
Cn1cnnc1CC1(c2cccc(N3Cc4c(cc(CNC5(C)CCCC5)cc4C(F)(F)F)C3=O)c2)CC(F)(F)C1 [Compound 344, 2-(3-(3,3-difluoro-1-((4-methyl-4H-1,2,4-triazol-3-yl)methyl)cyclobutyl)phenyl)-6-(((1-methylcyclopentyl)amino)methyl)-4-(trifluoromethyl)isoindolin-1-one formate] | 13 | – | 16 | – | –

Now from value to compound, other results behind:

IC50 [1] [nM] | (fold-selectivity) [1] | IC50 [2] [nM] | Compound | IC50 ([1]; formate) [nM] | IC50 ([2]; formate) [nM]
26 | 1.2x | 22 | Cc1cnnn1CC1(c2cccc(N3Cc4c(cc(CN5CCN(C)C[C@@H]5C(C)C)cc4C(F)(F)F)C3=O)c2)COC1 [Compound 222, (S)-6-((2-Isopropyl-4-methylpiperazin-1-yl)methyl)-2-(3-(3-((5-methyl-1H-1,2,3-triazol-1-yl)methyl)oxetan-3-yl)phenyl)-4-(trifluoromethyl)isoindolin-1-one] | – | –
7.5 | (0.63x) | 12 | Cn1cnnc1CC1(c2cc(NCCC#N)nc(N3Cc4c(cc(CNC5(C)CCC5)cc4C(F)(F)F)C3=O)c2)CCC1 [Compound 308, 3-((4-(1-((4-methyl-4H-1,2,4-triazol-3-yl)methyl)cyclobutyl)-6-(6-(((1-methylcyclobutyl)amino)methyl)-1-oxo-4-(trifluoromethyl)isoindolin-2-yl)pyridin-2-yl)amino)propanenitrile] | – | –
23 | 1.2x | 18 | Cn1cnnc1CC1(c2cccc(N3Cc4c(cc(CN5CC[C@@H](CCl)C5)cc4C(F)(F)F)C3=O)c2)COC1 [Compound 101, (R)-6-((3-(chloromethyl)pyrrolidin-1-yl)methyl)-2-(3-(3-((4-methyl-4H-1,2,4-triazol-3-yl)methyl)oxetan-3-yl)phenyl)-4-(trifluoromethyl)isoindolin-1-one] | – | –
57 | 1.9x | 29 | Cn1cnnc1[C@H](F)C1(c2cccc(N3Cc4c(cc(CN5CC(C(F)F)C5)cc4C(F)(F)F)C3=O)c2)COC1 [Compound 137, (R)-6-((3-(difluoromethyl)azetidin-1-yl)methyl)-2-(3-(3-(fluoro(4-methyl-4H-1,2,4-triazol-3-yl)methyl)oxetan-3-yl)phenyl)-4-(trifluoromethyl)isoindolin-1-one] | – | –
22 | 1.5x | 15 | Cn1cnnc1[C@H](F)C1(c2cccc(N3Cc4c(cc(CN5CC(C)(CCl)C5)cc4C(F)(F)F)C3=O)c2)COC1 [Compound 103, (R)-6-((3-(chloromethyl)-3-methylazetidin-1-yl)methyl)-2-(3-(3-(fluoro(4-methyl-4H-1,2,4-triazol-3-yl)methyl)oxetan-3-yl)phenyl)-4-(trifluoromethyl)isoindolin-1-one] | – | –
29 | (0.92x) | 31 | CCn1cnnc1C(F)C1(c2cccc(N3Cc4c(cc(CN5CCN(C)C[C@@H]5C(C)C)cc4C(F)(F)F)C3=O)c2)CC(F)(F)C1 (stereo partly drawn) [Compound 485, 2-(3-(1-((4-ethyl-4H-1,2,4-triazol-3-yl)fluoromethyl)-3,3-difluorocyclobutyl)phenyl)-6-(((S)-2-isopropyl-4-methylpiperazin-1-yl)methyl)-4-(trifluoromethyl) isoindolin-1-one] | – | –
21 | 1.5x | 14 | CC(C)[C@H]1CN(CCF)CCN1Cc1cc2c(c(C(F)(F)F)c1)CN(c1cccc(C3([C@H](F)c4nncn4C)COC3)c1)C2=O [Compound 198, 2-(3-(3-((S)-fluoro(4-methyl-4H-1,2,4-triazol-3-yl)methyl)oxetan-3-yl)phenyl)-6-(((S)-4-(2-fluoroethyl)-2-isopropylpiperazin-1-yl)methyl)-4-(trifluoromethyl)isoindolin-1-one] | – | –
16 | (0.76x) | 21 | CC[C@H]1CN(Cc2cc3c(c(C(F)(F)F)c2)CN(c2cccc(C4(Cc5nncn5C)CC(F)(F)C4)c2)C3=O)CCN1 [Compound 427, (S)-2-(3-(3,3-difluoro-1-((4-methyl-4H-1,2,4-triazol-3-yl)methyl)cyclobutyl)phenyl)-6-((3-ethylpiperazin-1-yl)methyl)-4-(trifluoromethyl)isoindolin-1-one] | – | –
22 | (0.93x) | 24 | C[C@@H](N)c1cc2c(c(C(F)(F)F)c1)CN(c1cccc(C3(Cc4nncn4C)CC(F)(F)C3)c1)C2=O [Compound 385, (R)-6-(1-aminoethyl)-2-(3-(3,3-difluoro-1-((4-methyl-4H-1,2,4-triazol-3-yl)methyl)cyclobutyl)phenyl)-4-(trifluoromethyl)isoindolin-1-one] | – | –
